Assay results as given in patent EP4755889A1, “COMPOUND FOR DETECTING AMYLOID-BETA OLIGOMER AND METHOD FOR DIAGNOSING DEGENERATIVE BRAIN DISEASE USING SAME” (Amyloid Solution Inc., priority 2024, dated 2025).

Legend:
Assay type in all cases: binding
fibrinogen = biological target: T1, fibrinogen (Homo sapiens, UniProt P02671+P02675+P02679); experiment: Selectivity for blood proteins: fibrinogen; details: IK15j (25 µM)
T1 construct: purchased Sigma-Aldrich
T1 sequence (P02671 20-629 limits assumed): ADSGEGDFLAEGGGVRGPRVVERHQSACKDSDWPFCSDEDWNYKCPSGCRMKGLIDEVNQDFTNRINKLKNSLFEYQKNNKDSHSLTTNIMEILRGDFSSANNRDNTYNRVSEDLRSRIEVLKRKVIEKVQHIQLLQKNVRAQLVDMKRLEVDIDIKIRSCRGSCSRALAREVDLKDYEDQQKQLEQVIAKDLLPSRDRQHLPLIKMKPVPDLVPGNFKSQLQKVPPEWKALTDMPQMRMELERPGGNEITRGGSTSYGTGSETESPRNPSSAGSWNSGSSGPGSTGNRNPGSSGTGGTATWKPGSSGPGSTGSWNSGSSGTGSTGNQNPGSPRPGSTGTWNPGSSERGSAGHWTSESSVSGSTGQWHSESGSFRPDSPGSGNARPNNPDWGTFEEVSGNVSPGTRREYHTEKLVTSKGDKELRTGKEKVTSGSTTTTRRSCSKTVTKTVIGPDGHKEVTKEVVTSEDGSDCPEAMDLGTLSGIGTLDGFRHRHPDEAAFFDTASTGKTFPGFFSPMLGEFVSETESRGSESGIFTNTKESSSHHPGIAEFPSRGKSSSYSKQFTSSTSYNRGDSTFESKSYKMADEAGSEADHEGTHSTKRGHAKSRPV
T1 sequence (P02675 31-491): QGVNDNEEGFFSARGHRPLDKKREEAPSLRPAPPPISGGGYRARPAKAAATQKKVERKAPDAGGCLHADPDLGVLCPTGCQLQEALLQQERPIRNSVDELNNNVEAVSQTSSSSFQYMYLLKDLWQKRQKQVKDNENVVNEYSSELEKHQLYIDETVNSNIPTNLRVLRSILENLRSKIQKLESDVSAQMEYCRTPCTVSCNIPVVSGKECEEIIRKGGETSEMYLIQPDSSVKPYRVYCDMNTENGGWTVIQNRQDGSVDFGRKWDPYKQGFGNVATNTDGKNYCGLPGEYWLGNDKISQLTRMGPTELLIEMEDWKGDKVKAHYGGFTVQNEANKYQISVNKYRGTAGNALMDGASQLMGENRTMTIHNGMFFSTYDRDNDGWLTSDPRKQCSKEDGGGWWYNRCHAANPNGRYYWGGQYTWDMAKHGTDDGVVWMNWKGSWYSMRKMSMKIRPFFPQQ
T1 sequence (P02679 27-453): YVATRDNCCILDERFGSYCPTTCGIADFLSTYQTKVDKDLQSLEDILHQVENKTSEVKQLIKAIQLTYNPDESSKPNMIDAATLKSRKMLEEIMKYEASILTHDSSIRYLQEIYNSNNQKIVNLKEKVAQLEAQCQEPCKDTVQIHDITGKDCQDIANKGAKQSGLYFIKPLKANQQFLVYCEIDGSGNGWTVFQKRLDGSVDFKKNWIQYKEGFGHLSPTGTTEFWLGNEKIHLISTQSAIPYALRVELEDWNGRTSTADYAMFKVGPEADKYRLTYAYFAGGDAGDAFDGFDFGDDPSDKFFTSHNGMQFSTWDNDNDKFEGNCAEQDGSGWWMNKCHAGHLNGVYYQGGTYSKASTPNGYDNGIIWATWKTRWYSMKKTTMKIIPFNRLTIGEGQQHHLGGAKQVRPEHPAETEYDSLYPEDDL
Experimental: Aβ1-42 peptide was aggregated at 37 °C for 8 hours, and 25 µM of Aβ1-42 oligomers, albumin (Sigma-Aldrich, USA), and fibrinogen (Sigma-Aldrich, USA) were seeded into a black microplate. Each sample was treated with IK15j (100 µM) for 8 hours at room temperature. The signal of each sample was detected using a microplate reader (λex = 285 nm / λem = 475 nm).
Excluding water, the solid components of plasma consist of coagulation factors and plasma proteins. Albumin is the most abundant protein in plasma, and fibrinogen is a major coagulation factor in plasma. Considering the possibility that fibrinogen or albumin might interact with AD diagnostic tools and interfere with compound selectivity, IK15j (25 µM) was incubated with Aβ1-42, albumin, or fibrinogen as described in Reference Example 10, and the fluorescence signal of each sample was measured to evaluate the selectivity of the compound of the present disclosure against these proteins.

Aβ oligomers = biological target: T2, Aβ oligomers (Homo sapiens, UniProt P05067); experiment: Detection of Aβ oligomers spiked into human plasma; details: IK15j (100 µM) for 8 hours
T2 construct: Aβ1-42 peptide was aggregated at 37 °C for 8 hours
T2 sequence (P05067 672-713): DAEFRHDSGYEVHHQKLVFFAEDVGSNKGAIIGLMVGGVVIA
Experimental: Aβ1-42 peptide (1,000, 100, 10, 1, 0.1, 0.01, and 0.001 pg/mL) was aggregated at 37 °C for 8 hours and added to human plasma (Sigma-Aldrich, USA). Then, each plasma sample was treated with the compound of the present disclosure (100 µM) for 8 hours at room temperature. The signal of each sample was detected using a microplate reader (λex = 285 nm / λem = 475 nm).
To investigate whether the compound of the present disclosure interacts with Aβ oligomers in plasma, Aβ oligomers were spiked into human plasma (at 100, 10, 1, 0.1, 0.01, 0.001, and 0 pg/mL) and treated with IK15j (100 µM) for 8 hours, as described in Reference Example 9.

Aβ oligomers (oAβ) = biological target: T3, Aβ oligomers (oAβ) (Homo sapiens, UniProt P05067); experiment: Fluorescence on plate-immobilized Aβ monomers and oligomers; details: mAβ and oAβ at 10 µM each immobilized on a plate; IK15j (100 µM) for 24 hours
T3 construct: Full-length and fragmented peptides of Aβ1-42 were individually dissolved in DMSO
T3 sequence (P05067 672-713): as above
Experimental: Briefly, to remove the bovine serum albumin coating from the plate, each well of the plate was washed three times with 200 µL of wash buffer (0.1 M sodium phosphate, 0.15 M sodium chloride, 0.05 % Tween-20, pH 7.2). Full-length and fragmented peptides of Aβ1-42 were individually dissolved in DMSO to prepare […] stock solutions, which were then diluted with binding buffer (0.1 M sodium phosphate, 0.15 M sodium chloride, 10 mM EDTA, pH 7.2) to prepare 50 µg/mL peptide solutions (5 % DMSO). 100 µL of the peptide solution was added to each well and allowed to react with the maleimide at room temperature overnight. After peptide immobilization, unbound peptides were removed by washing three times with 200 µL of wash buffer. […]
In addition, considering that EPPS might interfere with the interaction between IK15j and Aβ monomers, Aβ monomers and oligomers were immobilized on a plate according to the Aβ immobilization protocol of Reference Example 2, and then incubated with IK15j. Briefly, Aβ monomers (mAβ) and Aβ oligomers (oAβ) at 10 µM each were immobilized on a plate, treated with IK15j (100 µM) for 24 hours, and the fluorescence intensity was then measured; blank wells were treated with IK15j (100 µM) alone without immobilization of Aβ species.

For `Cc1ccc2c(c1)c(-c1ccccc1)cn1c(C)cc(C#N)c21` [IK15j, 3,8-dimethyl-6-phenylpyrrolo[2,1-a]isoquinoline-1-carbonitrile], the interaction with fibrinogen (fibrinogen) was “did not interact”, the “signal in spiked human plasma compared to blank human plasma (0 pg/mL)” value (Aβ oligomers; 1 pg/mL Aβ oligomers spiked) was “increased significantly” and the “increase in fluorescence intensity compared to the control” value (Aβ oligomers; 10-100 pg/mL Aβ spiked human plasma samples) was 52%. For the same molecule, the “fluorescence signal with Aβ oligomers in contrast to Aβ monomers” value (Aβ oligomers (oAβ)) was “markedly increased”.
